Measured values reported in the NIST ThermoML archive (doi:10.1016/j.jct.2018.03.007).
Numbers after ± are expanded uncertainties.

Test: xn = mol fraction of the nth substance listed
Settings: 100 kPa, Liquid; for speed of sound: Linear variable-path acoustic interferometer; for mass density: Vibrating tube method

CCn1cc[n+](C)c1.O=S(=O)([O-])O [1-ethyl-3-methylimidazolium hydrogen sulfate] + CCCO
speed of sound [m/s], Frequency=2 MHz
Settings | x1 = 0.0519 | x1 = 0.1097 | x1 = 0.2473 | x1 = 0.3301 | x1 = 0.425 | x1 = 0.5348 | x1 = 0.6634 | x1 = 0.816 | x1 = 0.9035 | x1 = 1
298.15 K | 1272.3 ± 1.7 | 1342.3 ± 1.7 | 1486.2 ± 1.9 | 1561.1 ± 2 | 1640.8 ± 2.1 | 1724.4 ± 2.2 | 1808.4 ± 2.4 | 1892 ± 2.6 | 1937.7 ± 2.7 | 1982.8 ± 2.9
303.15 K | 1254.7 ± 1.7 | 1324 ± 1.7 | 1467.1 ± 1.9 | 1542 ± 2 | 1621.3 ± 2.1 | 1704.9 ± 2.2 | 1788.3 ± 2.4 | 1871.6 ± 2.6 | 1917.9 ± 2.7 | 1962.9 ± 2.8
308.15 K | 1237.1 ± 1.6 | 1305.9 ± 1.7 | 1448.3 ± 1.9 | 1522.1 ± 2 | 1601.4 ± 2.1 | 1684.2 ± 2.2 | 1767.3 ± 2.4 | 1850.6 ± 2.6 | 1898.1 ± 2.7 | 1943.1 ± 2.8
313.15 K | 1219.7 ± 1.6 | 1288.1 ± 1.7 | 1429.1 ± 1.9 | 1502.6 ± 1.9 | 1581.7 ± 2.1 | 1664.9 ± 2.2 | 1747.8 ± 2.4 | 1830.1 ± 2.6 | 1878.1 ± 2.7 | 1923.2 ± 2.8

mass density [kg/m3]
Settings | x1 = 0.0519 | x1 = 0.1097 | x1 = 0.2473 | x1 = 0.3301 | x1 = 0.425 | x1 = 0.5348 | x1 = 0.6634 | x1 = 0.816 | x1 = 0.9035 | x1 = 1
298.15 K | 859.54 ± 2.2 | 918.5 ± 2.3 | 1034.63 ± 2.4 | 1091.59 ± 2.4 | 1147.59 ± 2.5 | 1202.62 ± 2.5 | 1256.73 ± 2.6 | 1310.71 ± 2.8 | 1338.05 ± 2.9 | 1365.75 ± 2.5
303.15 K | 855.59 ± 2.2 | 914.64 ± 2.3 | 1030.95 ± 2.4 | 1088.01 ± 2.4 | 1144.15 ± 2.5 | 1199.35 ± 2.5 | 1253.6 ± 2.6 | 1307.54 ± 2.7 | 1334.87 ± 2.9 | 1362.62 ± 2.5
308.15 K | 851.62 ± 2.2 | 910.8 ± 2.3 | 1027.23 ± 2.4 | 1084.39 ± 2.4 | 1140.69 ± 2.5 | 1196.07 ± 2.5 | 1250.5 ± 2.6 | 1304.42 ± 2.7 | 1331.73 ± 2.9 | 1359.53 ± 2.5
313.15 K | 847.65 ± 2.2 | 906.93 ± 2.3 | 1023.51 ± 2.4 | 1080.78 ± 2.4 | 1137.24 ± 2.4 | 1192.77 ± 2.5 | 1247.33 ± 2.6 | 1301.31 ± 2.7 | 1328.62 ± 2.8 | 1356.41 ± 2.5

CCn1cc[n+](C)c1.O=S(=O)([O-])O [1-ethyl-3-methylimidazolium hydrogen sulfate] + CCO
speed of sound [m/s], Frequency=3 MHz
Settings | x1 = 0.0281 | x1 = 0.0878 | x1 = 0.1779 | x1 = 0.3378 | x1 = 0.4731 | x1 = 0.577 | x1 = 0.6689 | x1 = 0.7759 | x1 = 0.8797 | x1 = 1
298.15 K | 1190.1 ± 1.6 | 1289.8 ± 1.6 | 1416.2 ± 1.8 | 1577.8 ± 1.9 | 1698.6 ± 2.1 | 1780.2 ± 2.3 | 1836.4 ± 2.4 | 1893.6 ± 2.5 | 1943.4 ± 2.7 | 1982.8 ± 2.9
303.15 K | 1170.6 ± 1.6 | 1267.3 ± 1.6 | 1393.3 ± 1.7 | 1558.4 ± 1.9 | 1675.8 ± 2.1 | 1755.7 ± 2.2 | 1816.2 ± 2.4 | 1871.9 ± 2.5 | 1922.1 ± 2.7 | 1962.9 ± 2.8
308.15 K | 1152.1 ± 1.6 | 1245.3 ± 1.6 | 1370.9 ± 1.7 | 1538.6 ± 1.9 | 1653 ± 2.1 | 1731.4 ± 2.2 | 1796 ± 2.4 | 1850.2 ± 2.5 | 1900.8 ± 2.7 | 1943.1 ± 2.8
313.15 K | 1132.9 ± 1.5 | 1222.8 ± 1.6 | 1348 ± 1.7 | 1516.6 ± 1.9 | 1630.3 ± 2.1 | 1707.9 ± 2.2 | 1773.8 ± 2.3 | 1828.5 ± 2.5 | 1879.5 ± 2.6 | 1923.2 ± 2.8

mass density [kg/m3]
Settings | x1 = 0.0281 | x1 = 0.0878 | x1 = 0.1779 | x1 = 0.3378 | x1 = 0.4731 | x1 = 0.577 | x1 = 0.6689 | x1 = 0.7759 | x1 = 0.8797 | x1 = 1
298.15 K | 829.67 ± 2.2 | 910.66 ± 2.3 | 1007.45 ± 2.3 | 1129.95 ± 2.4 | 1203.92 ± 2.5 | 1248.74 ± 2.5 | 1281.87 ± 2.6 | 1314.38 ± 2.7 | 1340.71 ± 2.8 | 1365.75 ± 2.5
303.15 K | 825.5 ± 2.2 | 906.7 ± 2.3 | 1003.74 ± 2.3 | 1126.52 ± 2.4 | 1200.65 ± 2.5 | 1245.56 ± 2.5 | 1278.69 ± 2.6 | 1311.18 ± 2.7 | 1337.51 ± 2.8 | 1362.62 ± 2.5
308.15 K | 821.28 ± 2.2 | 902.7 ± 2.3 | 999.98 ± 2.3 | 1123.06 ± 2.4 | 1197.38 ± 2.5 | 1242.38 ± 2.5 | 1275.52 ± 2.6 | 1308 ± 2.7 | 1334.34 ± 2.8 | 1359.53 ± 2.5
313.15 K | 817 ± 2.2 | 898.63 ± 2.3 | 996.14 ± 2.3 | 1119.54 ± 2.4 | 1194.05 ± 2.5 | 1239.13 ± 2.5 | 1272.31 ± 2.6 | 1304.78 ± 2.7 | 1331.14 ± 2.8 | 1356.41 ± 2.5

CCn1cc[n+](C)c1.O=S(=O)([O-])O [1-ethyl-3-methylimidazolium hydrogen sulfate] + C[S+](C)[O-]
speed of sound [m/s], Frequency=2 MHz
Settings | x1 = 0.0494 | x1 = 0.1349 | x1 = 0.2377 | x1 = 0.3638 | x1 = 0.5219 | x1 = 0.6517 | x1 = 0.7261 | x1 = 0.8081 | x1 = 0.9182 | x1 = 1
298.15 K | 1530.5 ± 1.8 | 1600.5 ± 1.8 | 1672.7 ± 1.9 | 1746.9 ± 2 | 1823.3 ± 2.2 | 1875.5 ± 2.4 | 1902 ± 2.5 | 1928.7 ± 2.6 | 1961 ± 2.7 | 1982.8 ± 2.9
303.15 K | 1513.4 ± 1.8 | 1582.9 ± 1.8 | 1654.4 ± 1.9 | 1728.2 ± 2 | 1804.2 ± 2.2 | 1856.1 ± 2.4 | 1882.4 ± 2.5 | 1909 ± 2.6 | 1941.2 ± 2.7 | 1962.9 ± 2.8
308.15 K | 1495.9 ± 1.8 | 1564.8 ± 1.8 | 1635.9 ± 1.9 | 1709.3 ± 2 | 1784.9 ± 2.2 | 1836.6 ± 2.4 | 1862.8 ± 2.5 | 1889.3 ± 2.6 | 1921.5 ± 2.7 | 1943.1 ± 2.8
313.15 K | 1478.6 ± 1.7 | 1547 ± 1.8 | 1617.6 ± 1.9 | 1690.5 ± 2 | 1765.7 ± 2.2 | 1817.1 ± 2.3 | 1843.2 ± 2.4 | 1869.6 ± 2.6 | 1901.6 ± 2.7 | 1923.2 ± 2.8

mass density [kg/m3]
Settings | x1 = 0.0494 | x1 = 0.1349 | x1 = 0.2377 | x1 = 0.3638 | x1 = 0.5219 | x1 = 0.6517 | x1 = 0.7261 | x1 = 0.8081 | x1 = 0.9182 | x1 = 1
298.15 K | 1128.82 ± 2.4 | 1175.73 ± 2.5 | 1219.12 ± 2.5 | 1259.43 ± 2.5 | 1297.19 ± 2.6 | 1320.97 ± 2.6 | 1332.42 ± 2.7 | 1343.71 ± 2.8 | 1357.03 ± 2.9 | 1365.75 ± 2.5
303.15 K | 1124.11 ± 2.4 | 1171.37 ± 2.5 | 1214.91 ± 2.5 | 1255.51 ± 2.5 | 1293.61 ± 2.6 | 1317.58 ± 2.6 | 1329.14 ± 2.7 | 1340.51 ± 2.8 | 1353.89 ± 2.9 | 1362.62 ± 2.5
308.15 K | 1119.4 ± 2.4 | 1166.99 ± 2.5 | 1210.85 ± 2.5 | 1251.66 ± 2.5 | 1290.03 ± 2.6 | 1314.21 ± 2.6 | 1325.9 ± 2.7 | 1337.32 ± 2.8 | 1350.73 ± 2.9 | 1359.53 ± 2.5
313.15 K | 1114.68 ± 2.4 | 1162.54 ± 2.4 | 1206.72 ± 2.5 | 1247.85 ± 2.5 | 1286.51 ± 2.6 | 1310.9 ± 2.6 | 1322.64 ± 2.7 | 1334.1 ± 2.8 | 1347.61 ± 2.9 | 1356.41 ± 2.5
